Results from article PMC13155568, “A plant-specific cytochrome b5–like protein is essential for phytosterol biosynthesis” (Science Advances, 2025).

Target: T1, CBR1 (Arabidopsis thaliana, UniProt Q9ZNT1)
T1 sequence (Q9ZNT1 1-281): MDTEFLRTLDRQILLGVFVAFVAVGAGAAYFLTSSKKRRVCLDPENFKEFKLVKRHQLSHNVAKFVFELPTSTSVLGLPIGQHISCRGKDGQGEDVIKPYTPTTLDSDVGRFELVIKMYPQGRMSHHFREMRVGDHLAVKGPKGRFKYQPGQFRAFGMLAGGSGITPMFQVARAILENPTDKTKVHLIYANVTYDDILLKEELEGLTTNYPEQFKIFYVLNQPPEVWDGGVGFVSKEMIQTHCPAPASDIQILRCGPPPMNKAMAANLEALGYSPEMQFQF
T1 sequence (O22704 22-121 partner limits assumed): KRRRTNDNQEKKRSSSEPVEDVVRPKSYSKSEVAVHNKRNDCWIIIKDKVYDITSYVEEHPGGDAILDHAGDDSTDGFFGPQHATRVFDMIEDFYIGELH
Test: reduction of recombinant CB5LP followed by Soret shift
Type: biochemical
Settings: 100 uM NADH, 9 uM CB5LP as electron acceptor, Tris-HCl pH 7.5, room temperature

In the case of `NC(=O)C1=CN([C@@H]2O[C@H](COP(=O)(O)OP(=O)(O)OC[C@H]3O[C@@H](n4cnc5c(N)ncnc54)[C@H](O)[C@@H]3O)[C@@H](O)[C@H]2O)C=CC1` [NADH], the “reduction of recombinant CB5LP followed by Soret shift” value is reported as “CB5LP was effectively reduced by CBR1 in the presence of NADH”.
